Test results reported in US7265246B2, “Indane derivates as muscarinic receptor agonists” (Eli Lilly and Company, priority 2003, dated 2007).
Like-named read-outs stand apart in the source and are kept apart here.

System: Male Sprague-Dawley rats
Settings: s.c. immediately after the sampling phase, six-hour delay

Nc1c2c(nc3ccccc13)CCCC2 [Tacrine, tacrine]
retention in the eight arm radial maze (3 mg/kg): not | retention in the eight arm radial maze (10 mg/kg): significantly improved retention
